{
  "source": "paper PMC6934184",
  "about": "“Selective DNA-PKcs inhibition extends the therapeutic index of localized radiotherapy and chemotherapy” (The Journal of Clinical Investigation, 2019)",
  "target": "T1, TTK (Homo sapiens, UniProt P33981)",
  "T1 construct": "purchased Thermo Fisher Scientific (Life Technologies) SelectScreen",
  "T1 sequence (P33981 whole entry)": "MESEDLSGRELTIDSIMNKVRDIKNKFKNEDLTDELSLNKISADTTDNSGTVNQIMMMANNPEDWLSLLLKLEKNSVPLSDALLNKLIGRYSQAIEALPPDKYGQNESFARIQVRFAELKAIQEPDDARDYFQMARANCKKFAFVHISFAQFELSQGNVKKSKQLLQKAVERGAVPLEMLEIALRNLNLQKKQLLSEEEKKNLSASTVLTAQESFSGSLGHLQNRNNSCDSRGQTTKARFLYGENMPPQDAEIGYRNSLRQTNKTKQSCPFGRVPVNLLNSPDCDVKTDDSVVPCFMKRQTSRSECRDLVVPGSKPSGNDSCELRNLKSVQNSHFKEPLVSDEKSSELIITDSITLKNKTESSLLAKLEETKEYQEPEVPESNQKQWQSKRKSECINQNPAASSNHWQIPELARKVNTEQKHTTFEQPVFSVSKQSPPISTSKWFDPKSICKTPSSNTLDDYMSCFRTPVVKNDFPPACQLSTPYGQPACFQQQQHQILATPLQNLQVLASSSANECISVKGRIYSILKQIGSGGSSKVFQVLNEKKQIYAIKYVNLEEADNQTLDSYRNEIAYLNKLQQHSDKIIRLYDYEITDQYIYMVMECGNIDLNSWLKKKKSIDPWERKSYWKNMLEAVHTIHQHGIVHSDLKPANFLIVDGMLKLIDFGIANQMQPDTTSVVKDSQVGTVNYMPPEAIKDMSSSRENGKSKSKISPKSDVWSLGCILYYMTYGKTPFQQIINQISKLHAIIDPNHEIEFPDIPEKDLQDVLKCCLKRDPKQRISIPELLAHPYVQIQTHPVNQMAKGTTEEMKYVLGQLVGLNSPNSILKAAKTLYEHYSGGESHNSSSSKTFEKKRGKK",
  "assay": "SelectScreen LanthaScreen",
  "assay_type": "binding",
  "conditions": "read-out: % displacement",
  "outline": "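SelectScreen broad panel; activity (Z'LYTE, Adapta) plus binding formats. ATP: Km app for CSF1R Z'LYTE; 10 for CAMK1 Adapta. Readout = % per kinase.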",
  "data": [
    {"smiles": "CN(C(=O)CN1CCOCC1)c1ccc2sc3c(-c4cccc5c(=O)cc(N6CC7CCC(C6)O7)oc45)cccc3c2c1", "note": "[NU5455]", "values": [
      {"measurement": "inhibition at 1 µM", "value": -0.7, "unit": "%"}
    ]}
  ]
}
